Laboratory results taken from patent EP0062319A1, “3-Methyl-1-(2-(3-naphthyloxy)-ethyl)-2-pyrazolin-5-one for the treatment of the metastasis and growth of tumour cells” (BAYER AG, priority 1981, dated 1982).

How the values were obtained:
Metastase = conditions: literature, cited from earlier work
B-16a-Melanom-Zellen = conditions: literature; metastasis induced by intravenous B-16a melanoma cells; cited from earlier work
Lewis-Lungen-Karzinom = experiment: Tumour incidence and final tumour weight of subcutaneous Lewis lung carcinoma in mice; type: in vivo, C57BL/6J Mäuse; conditions: killed day 22
Excerpt: Die antineoplastische Wirksamkeit wurde außerdem durch direkte Messung des Wachstums der Tumorzellen in vitro in Gewebekulturen bestimmt. Diese Methode bedient sich des "Plating" oder Aufimpfens einer bekannten Anzahl von Tumorzellen auf ein Wachstumsmedium und der Bestimmung der Wirkung der Anwesenheit der zu prüfenden Verbindung auf die Tumorzellen-Proliferation. Schließlich wurde die antineoplastische Aktivität in vivo in der Weise bestimmt, daß den Mäusen subkutan Tumorzellen injiziert wurden und das Auftreten von Tumorzellenwachstum sowie das Gewicht der wachsenden Tumorzellen in unbehandelten Kontrolltieren und in mit der Pyrazolon-Verbindung behandelten Tieren bestimmt wurden.
3 mg 3-Methyl-1-[2-(2-naphthyloxy)-ethyl]-2-pyrazolin-5-on wurden in 0,6 ml Ethylalkohol gelöst, und die Lösung wurde mit konzentrierter Natronlauge auf einen pH von 9,5 eingestellt.
Syngeneischen C57BL/6J Wirts-Mäusen wurden 1 x 10^5 Lewis-Lungenkarzinom-Zellen (0,2 ml) subkutan in die Achselhöhlenregion injiziert. Nach einem Zeitraum von 24 Stunden wurde die Pyrazolon-Verbindung 21 Tage lang täglich verabreicht. Die Wirkung der Verabreichung von Theophyllin zusammen mit der Pyrazolon-Verbindung wurde ebenfalls untersucht. Während des Zeitraums wurden die Mäuse unter identischen Bedingungen der Temperatur, Lichteinwirkungsdauer, Ernährung etc. gehalten. Die Mäuse wurden 22 Tage nach der Injektion der Tumorzellen getötet und mittels einer Gesamt-Nekropsie auf die Anwesenheit subkutaner Tumoren untersucht. Vorhandene Tumoren wurden entfernt und auf einer Analysenwaage gewogen.

[1] = system: B-16a-amelanotischen Melanom-Zellen; experiment: Metastasis of tail-vein injected B-16a melanoma cells (lung tumour colonies) in mice; type: in vivo, C57BL/6J Mäuse; conditions: Theophyllin 200 µg injected 1 h before the tumour cells; 5 x 10^4 cells i.v.; mean ± SEM, n = 6
Excerpt: Wie bereits weiter oben festgestellt wurde, ist die Metastase […], die durch eine Reihe komplizierter Vorgänge dargestellt wird. Gegenwärtig finden zwei "Modell"-Systeme für die Untersuchung der in vivo-Metastase verbreitete Anwendung. Das erste Modellsystem umfaßt die subkutane Injektion der Tumorzellen in das Tier. Die subkutane Injektion der Tumorzellen und anschließende Entwicklung eines Primärtumors, gefolgt von spontaner Metastase, wird als "volle" Metastase betrachtet. Ein anderes Modellsystem umfaßt die Injektion der Tumorzellen durch die Schwanzvene. In Anbetracht der Komplexität der Metastase gilt die Schwanzvenen-Injektion als künstliches und nur partielles Modellsystem, da es nur die Vorgänge während des letzteren Teils der Metastase wiedergibt. Das Schwanzvenen-Modellsystem gilt jedoch auch als außerordentlich günstig im Hinblick auf eine Standardisierung der Versuchsbedingungen [vgl."Methods in Cancer Research", Kapitel VII, Academic Press, Inc., 1978].
Als Kontrolltiere wurden (unbehandelte) C57B1/6J-Mäuse nach folgender Arbeitsweise auf volle Metastase untersucht. Zellsuspensionen der B-16 - und 3LL-Karzinom-Zellen, die wie oben unter A und B beschrieben erhalten worden waren, wurden subkutan in die rechte Achselhöhlenregion der männlichen C57BL/6J-Mäuse injiziert (0,66 mm- = 26 gauge -Nadel; 0,2 ml). Injiziert wurden verschiedene Mengen der Zellsuspensionen im Bereich von 1 x 10^5 bis 1 x 10^6 Zellen. Versuche zur partiellen Metastase wurden in der Weise durchgeführt, daß Tumorzellen über die Schwanzvene in die (unbehandelten) Kontroll-Mäuse injiziert wurden. Die Tiere wurden unter identischen Bedingungen der Temperatur, Lichteinwirkungsdauer, Ernährung etc. gehalten. Nach einem Beobachtungszeitraum von 17 bis 30 Tagen wurden die für die volle Metastase und für die partielle Metastase verwendeten Tiere getötet, und die Lungen, Leber, Nieren, Milz und Gehirn-Gewebe wurde entnommen.
Das entnommene Gewebe wurde in Bouin-Lösung fixiert.
Die Zahl der metastatischen Knötchen in jedem Organ wurde mit Hilfe eines Bausch-und-Lomb Stereo-Zoom-Mikroskops bestimmt. Die Untersuchung der Kontroll- Mäuse auf metastatische Knötchen ergab bei 100 % der Tiere positive Befunde in bezug auf metastatische Lungentumoren; die Inkubationszeit für die Erzeugung solcher Metastasen betrug für die 3LL-Tumorzellen 17 bis 21 Tage und für die B-16 a -Tumorzellen 23 bis 30 Tage. In Leber, Nieren, Milz oder Gehirn-Gewebe wurden keine sichtbaren Knötchen beobachtet.
3 mg 3-Methyl-1-[2-(2-naphthyloxy)-ethyl]-2-pyrazolin-5-on wurden in 0,6 ml absolutem Ethylalkohol suspendiert. Das suspendierte Pyrazolon wurde durch Einstellen des pH auf 9,5 mit NaOH gelöst. […]

In the case of `CC(=O)Oc1ccccc1C(=O)O` [Aspirin], the Metastase (Metastase) is listed as “gemischte Ergebnisse”.

In the case of `CCCCC[C@H](O)/C=C/[C@@H]1[C@H]2C/C(=C/CCCC(=O)O)O[C@H]2C[C@H]1O` [Prostacyclin], the Metastase (B-16a-Melanom-Zellen) is given as “verhindert werden kann”.

In the case of `Cn1c(=O)c2[nH]cnc2n(C)c1=O` [Theophyllin, reference compound], the “Tumor-Häufigkeit Anzahl” value (Lewis-Lungen-Karzinom; 250 µg Theophyllin daily i.p. in 0,4 ml) is reported as 9/12, the Tumor-Häufigkeit % (Lewis-Lungen-Karzinom; 250 µg Theophyllin daily i.p.) is reported as 75% and the “Gewicht” value (Lewis-Lungen-Karzinom; final tumour weight, 250 µg Theophyllin daily i.p.) is reported as 1.58 ± 0.42 mg. For the same molecule, the Lungen-Tumor-Kolonien [1] was 165 ± 38.

In the case of `CC(=O)CC(c1ccccc1)c1c(O)c2ccccc2oc1=O` (stereo not shown) [Warfarin], the “antimetastatische Wirkungen” value (Metastase; after intravenous injection of tumour cells and in spontaneously metastasising tumours) is given as “signifikante antimetastatische Wirkungen”.
